Test results from US5175320A, “Fluorinated bile acid derivatives, processes for the preparation thereof and pharmaceutical compositions containing them” (Giuliani S.p.A., priority 1989, dated 1992).
≈ marks a conversion by molar mass, not a printed value. Entries after “also recorded” stand apart in the source; their conditions may differ.

Legend:
[1] = water solubility (of the protonated forms); assay type: physicochemical
Method: 6-FCDCA has been submitted to a series of physico-chemical determinations following a previously described protocol. Particularly, the lypophilicity, detergency, water solubility and pKa were measured. | rK' = relative values Water solubility of the protonated forms Data on water solubility are reported on the enclosed table 1.

[2] = lypophilicity by C/18 reverse phase HPLC; assay type: physicochemical; conditions: for rK' C-18: rK' = relative values, C-18 reverse phase HPLC
Method: (§1) 6-FCDCA has been submitted to a series of physico-chemical determinations following a previously described protocol. Particularly, the lypophilicity, detergency, water solubility and pKa were measured.

[3] = detergency, critical micellar concentration; assay type: physicochemical; conditions: for CMC: Table 1
Method: as §1

pKa = assay type: physicochemical
Description: 6-FCDCA has been submitted to a series of physico-chemical determinations following a previously described protocol.

human stools = assay type: in vitro ADME

| Structure (SMILES) | water solubility [1] [µmol] | S (water solubility) ([1]; protonated forms, Table 1) [µM] | rK' C-18 [2] | CMC [3] [mmol/1] | pKa (pKa) | protection of the 7-hydroxy group from oxidation and 7-dehydroxylation (human stools) | stability to intestinal bacteria compared with CDCA (human stools) | water solubility compared with CDCA [1] | solubility ([1]; water) [µM] | lypophilicity compared with natural analogues ([2]; C/18 reverse phase HPLC, result in words) | critical micellar concentration [3] [mmol/L] |
| --- | --- | --- | --- | --- | --- | --- | --- | --- | --- | --- | --- |
| C[C@H](CCC(=O)O)[C@H]1CC[C@H]2[C@@H]3[C@H](O)C[C@@H]4C[C@H](O)CC[C@]4(C)[C@H]3CC[C@]12C [CDCA, chenodeoxycholic, reference compound] | 30 | 30 | 0.89 | 9 | – | – | – | – | – | – | – |
| C[C@H](CCC(=O)O)[C@H]1CC[C@H]2[C@@H]3[C@H](O)C(F)[C@H]4C[C@H](O)CC[C@]4(C)[C@H]3CC[C@]12C (stereo partly drawn) [Example 6-FCDCA, 3α,7α-Dihydroxy-6-fluoro-5α-cholan-24-oic acid] | – | – | 0.6 | 10 | 5 | efficaciously protects the hydroxy group in 7-position to oxidation and 7-dehydroxylation | more stable to intestinal bacteria | slightly higher than that of CDCA | 80 (≈ 32.8 µg/mL) | lower when compared with CDCA; also recorded: intermediate between CDCA and UDCA; also recorded: less lypohilic than CDCA | 10 |
| C[C@H](CCC(=O)O)[C@H]1CC[C@H]2[C@@H]3[C@@H](O)C[C@@H]4C[C@H](O)CC[C@]4(C)[C@H]3CC[C@]12C [UDCA, ursodeoxycholic, reference compound] | – | – | 0.4 | – | – | – | – | – | – | – | – |
